{"source": "patent US10633386B2", "about": "“BET protein degraders” (THE REGENTS OF THE UNIVERSITY OF MICHIGAN, priority 2016, dated 2020)", "tested_on": "MDA-MB-231 xenograft", "assay": "Efficacy of Cpd. No. 9 in MDA-MB-231 xenograft model", "assay_type": "in vivo, SCID mice", "settings": "MDA-MB-231 xenograft model in mice, i.v. (FIG. 7)", "protocol": "Cpd. No. 9 was dissolved in 10% PCP [10% PEG400 (Sigma)+3% Cremophor (Sigma)+87% PBS (Gibco)]. The pH of the drug solutions were checked before use and adjusted with 0.5N NaOH to be between pH 6.5 and 8.0 for IV (intravenous) administration.\nHuman breast tumor cells, MDA-MB-231 (ATCC®) were maintained at 37° C., 95% air, 5% carbon dioxide in Improved MEM (Richter's Mod.) supplemented with 10% Fetal Bovine Serum, 100 units/ml of penicillin and […] (GIBCO™, Invitrogen Corp.) and passaged twice weekly.\nTumor cells for xenografts were harvested with Trypsin (0.05%)-EDTA (0.53 mM) (GIBCO™, Invitrogen Corp.), growth medium added and cells placed on ice. Cells were washed once with 1×PBS (GIBCO™, Invitrogen Corp.) and re-suspended in PBS. After washing in PBS, cells were re-suspended in an ice cold mixture of 1:1 PBS and Matrigel (BD Biosciences, Invitrogen Corp.) for a final Matrigel protein concentration of 5 mg/ml. Cells at 5×10^6 cells in 0.1 ml were injected subcutaneously (s.c.) into the flank region of each mouse using a 25 gauge needle. […]\nThe size of tumors growing in the mice was measured in two dimensions using calipers. […] During treatment, tumor volume and body weight were measured three times a week. After the treatment was stopped, tumor volume and body weight was measured at least once a week. […]", "data": [{"smiles": "CCn1nc(C2CC2)cc1Nc1nc(C(=O)NCCCCNc2cccc3c2C(=O)N(C2CCC(=O)NC2=O)C3=O)nc2[nH]c3cc(-c4c(C)noc4C)c(OC)cc3c12", "note": "(stereo not shown) [Cpd. No. 9]", "values": [{"measurement": "tumor growth", "value": "reduces tumor growth"}]}]}
